The test system of one test is NOTCH1 processing. The test is described as follows: Western blot analysis of activated NOTCH1 (NOTCH1IC) in GSI-sensitive and GSI-resistant T-ALL cell lines. The format is cell-based, human. The conditions noted are these: Comp E 100 nM, 24 hours. As for the experimental part: FIG. 7. CompE treatment effectively blocks NOTCH1 processing in GSI-sensitive and resistant T-ALL cells. Western blot analysis of activated NOTCH1 (NOTCH1IC) levels in GSI-sensitive and resistant cell lines after 24 hours treatment with Comp E (100 nM). α-Tubulin levels are shown as loading control. Lower molecular weight bands correspond to activated NOTCH1 protein in cell lines harboring mutations that result in C-terminal truncations of the PEST domain (NOTCH 1IC-ΔPEST).
(§1) Antibodies against activated NOTCH1 (Val1744, Cell Signaling); PTEN (clone 6H2.1, Cascade Biosciences), phospho-AKT (Ser473), AKT (Cell Signaling), LC3, and α-tubulin (TU-02, Santa Cruz Biotechnology) were used according to standard procedures. PTEN immunostaining of formalin-fixed paraffin-embedded tissue sections was performed after heat-induced epitope retrieval in a microwave in citrate buffer (pH6.0). PTEN antibody (Zymed) was used at a 1:50 dilution. Slides were incubated at room temperature overnight before antigen detection using a Ventana automated staining platform (Ventana) and diaminobenzidine (DAB) detection.
On the technique in general: Immunoblotting shows a protein as a band on a membrane.

A further test deals with DELTEX1. Briefly: Quantitative RT-PCR analysis of DELTEX1 expression in GSI-sensitive and resistant T-ALL cell lines. The format is cell-based, human. The conditions noted are these: Comp E 100 nM, 24 hours. Here is the method:
FIG. 8. CompE treatment effectively down regulates the expression of DELTEX1 in GSI-sensitive and resistant T-ALL cells. (a and b) Quantitative RT-PCR analysis of DELTEX1 expression in GSI-sensitive and resistant cell lines after 24 hours of treatment with Comp E (100 nM). Relative expression levels were calculated by the ΔΔCt method using GAPDH as a reference control. Data are means +/− standard deviation.
(§2) Total RNA from T-ALL cell lines was extracted with RNAqueous kit (Ambion) following the manufacturer's instructions. cDNA was generated with the ThermoScript RT-PCR system (Invitrogen) and analyzed by quantitative real-time PCR (SYBR Green RT-PCR Core Reagents kit and the 7300 Real-Time PCR System, both from Applied Biosystems). Similar procedures were used to analyze RNA from DN3 cells purified from OP9 cocultures: Trizol method (Invitrogen) for RNA isolation, Omniscript RT kit (Qiagen) for cDNA synthesis and QuantiTect SYBR Green PCR kit (Qiagen) and the Applied Biosystems Sequence Detection System 7000 for PCR. Relative expression levels were based on GAPDH and β-actin as reference controls.

Test [1] concerns CUTLL1 cells. The test is described as follows: Cell size (flow cytometry) and cell growth (MTT) assays in CUTLL1 cells. The format is cell-based, human. The conditions noted are these: CompE 100 nM for 4 days. As for the experimental part:
(§3) FIG. 2. PTEN loss and AKT activation induce GSI resistance in T-ALL. […] No protective effect was observed by expression of a control shRNA targeting the luciferase gene (shRNA LUC). Mean FSC-H values for GSI and vehicle only treatment controls are indicated. Bar graphs represent means +/− standard deviation of triplicate samples. P values were derived from Student's t-test.
(§4) Changes in cell size were monitored by flow cytometry after NOTCH1 inactivation by GSI treatment (CompE 100 nM) and upon lentiviral shRNA knock-down of NOTCH1. Cell growth ratios were determined by a colorimetric assay using the Cell Proliferation Kit I (MTT) (Roche) in cells treated with inhibitors or vehicle treated controls.

Another test concerns DND41 cells. Briefly: Cell size (flow cytometry) and cell growth (MTT) assays in DND41 cells. The conditions noted are these: CompE 100 nM for 4 days. The format is cell-based, human. Here is the method:
as §3, §4

The test system of a further test is PTEN. The test is described as follows: Real-time PCR analysis of PTEN transcript levels upon NOTCH1 inhibition by GSI. The format is cell-based, human. The conditions noted are these: GSI-sensitive/PTEN-positive cells (CUTLL1, HPB-ALL).
Source text: (§5) FIG. 3. NOTCH1 regulates PTEN expression, AKT signaling and glucose metabolism. (a) Real-time PCR analysis of PTEN transcript levels upon NOTCH1 inhibition by GSI in CUTLL1 and HPB-ALL relative to (DMSO) controls. GAPDH levels were used as reference control. (b) Western blot analysis of PTEN and p-AKT (Ser473) in GSI sensitive T-ALL cell lines treated with CompE. AKT and α-Tubulin are shown as loading controls. (c) Real-time PCR analysis of Hes1 and PTEN expression in mouse DN3 thymocytes cocultured with stromal cells (OP9) or stromal cells expressing the NOTCH1 ligand Delta-like-1 (OP9-DL1). Data are means +/− standard deviation of duplicate (day 1) and triplicate (day 2) experiments. […]
as §2, with “Relative expression levels were based on GAPDH and β-actin as reference controls.” left out
On the technique in general: Quantitative PCR measures a nucleic acid by following its amplification.

Another test has as its system p-AKT (Ser473). The test is described as follows: Western blot analysis of PTEN and p-AKT (Ser473) in GSI sensitive T-ALL cell lines. The format is cell-based, human. The conditions noted are these: GSI-sensitive/PTEN-positive T-ALL cell lines.
Source text: as §5, with “experiments. (d) Glucose uptake analysis in HPB-ALL and P12ICHIKAWA T-ALL cell lines in basal conditions (vehicle treatment only). (e) Glucose oxidation analysis in HPB-ALL and P12-ICHIKAWA T-ALL cell lines in basal conditions (vehicle treatment only). (f) Effects of GSI treatment in glucose uptake in HPB-ALL and P12-ICHIKAWA T-ALL cells. (g) Effects of GSI treatment in glucose oxidation in HPB-ALL and P12-ICHIKAWA T-ALL cells. Data shown in (d) and (f) are means +/− standard deviation of triplicates. Data shown in (e) and (g) are means +/− standard deviation of duplicates. P values in (a) and (c)-(g) were derived from Student's t-test.” for “experiments.”

The subject of the next test is HPB-ALL cells. The test is described as follows: Glucose uptake and oxidation in HPB-ALL cells. The format is cell-based, human. The conditions noted are these: CompE 100 nM for 96 hours.
Source text: as §5, with “experiments. (d) Glucose uptake analysis in HPB-ALL and P12ICHIKAWA T-ALL cell lines in basal conditions (vehicle treatment only). (e) Glucose oxidation analysis in HPB-ALL and P12-ICHIKAWA T-ALL cell lines in basal conditions (vehicle treatment only).” for “experiments.”
(§6) Glucose uptake and oxidation were analyzed in T-ALL cells treated with GSI (CompE 100 nM for 96 hours) or vehicle only (DMSO) controls. […] For glucose uptake, cells were incubated with 0.1 mM (2 μCi/ml) 2-[3H]-deoxy-glucose, then washed in cold PBS and solubilized in 0.1% SDS and analyzed by scintillation counting. […] Glucose oxidation was measured as the amount of ^14CO2 captured in glass fiber filters previously soaked in 5% KOH. […]

For the next test, the system named is P12ICHIKAWA cells. Briefly: Glucose uptake and oxidation in P12-ICHIKAWA cells. The format is cell-based, human. The conditions noted are these: CompE 100 nM for 96 hours.
Source text: as §5, with “experiments. (d) Glucose uptake analysis in HPB-ALL and P12ICHIKAWA T-ALL cell lines in basal conditions (vehicle treatment only). (e) Glucose oxidation analysis in HPB-ALL and P12-ICHIKAWA T-ALL cell lines in basal conditions (vehicle treatment only).” for “experiments.”
as §6

The test system of test [2] is CUTLL1 cells. Briefly: Autophagy analysis (electron microscopy, LC3 Western blot) in CUTLL1 cells. The format is cell-based, human. Here is the method: FIG. 11. […] (a, b) Transmission electron microscopy analysis of an early pass culture of CUTLL1 cells treated with vehicle control (DMSO) or GSI ([…] CompE) for 6 days. White arrow heads indicate phagosomes. Black arrowheads indicate mitochondria. (c) Quantitation of double membrane structures excluding mitochondria in control (DMSO) and GSI (CompE)-treated cells. Horizontal lines indicate the median. P values were derived from the Wilcoxon rank sum test. (d) Western blot analysis of the phagosome-associated LC3 protein in CUTLL1 cells treated with DMSO or CompE for 48 hours.
as §1
Electron microscopy. […] Double membrane structures, excluding mitochondria, were counted in sample preparations of an early-pass culture of CUTLL1 cells treated with DMSO or CompE (500 nM) for 6 days.

Test [3] concerns Drosophila ey-Gal4>DI flies. The test is described as follows: Drosophila DAPT treatments of flies overexpressing Delta (ey-Gal4>DI). The format is in vivo. An excerpt: FIG. 16. Inhibition of NOTCH signaling with GSI can suppress overgrowth caused by overexpression of Delta in vivo. (a) Quantification of NOTCH-like eye growth phenotypes associated with treatment with the presenilin/γ-secretase inhibitor DAPT in flies that overexpressed the NOTCH ligand Delta, during the proliferation phase of eye development. Genotype is ey-Gal4 UAS-DI (hereafter, ey-Gal4>DI). (b) Quantification of other NOTCH-like wing phenotypes (loss of wing margin and small wing size) in the ey-Gal4>DI treated animals. For each of the DAPT concentrations shown, the number of eyes and wings quantified were: n=215 (0 mM of DAPT), n=202 (0.25 mM), n=455 (0.5 mM) and n=318 (1 mM). Representative data from two independent experiments are shown.
Drosophila DAPT treatments. The γ-secretase inhibitor DAPT prevents NOTCH processing, translocation and signaling in cell culture and induces developmental defects in Drosophila similar to those caused by genetic reduction of NOTCH signaling. Stock solutions of the compound in ethanol were added to 2.5 ml of distilled water and dried potato food were prepared. Flies carrying a Delta transgene (UAS-DI) and the eye-specific Gal4 driver, ey-Gal4 (hereafter, ey-Gal4>DI) were kept on standard fly food at 26° C. for 3 days (72 hours) and the progeny were collected and transferred to the vials containing the food mixed with DAPT and allowed to progress through development in the presence of DAPT until closure.

The mark [4] stands for this setting: non-lethal doses (1 mM) in food.

Two compounds from US20110118192A1, “METHODS AND COMPOSITIONS FOR TREATING T-CELL LEUKEMIA” (priority 2007, published 2011) can be followed below.

SMILES strings stand for the structures. “Also recorded” adds a separate entry of the source.

For the compound `C[C@H](NC(=O)Cc1cc(F)cc(F)c1)C(=O)N[C@H]1N=C(c2ccccc2)c2ccccc2N(C)C1=O` [CompE, (2S)-2-{[(3,5-Difluorophenyl)acetyl]amino}-N-[(3S)1-methyl-2-oxo-5-phenyl-2,3-dihydro-1H-1,4-benzodiazepin-3-yl]propanamide], the “NOTCH1 processing (activated NOTCH1, NOTCH1IC levels)” value with NOTCH1 processing is recorded as “effectively block NOTCH1 processing in all cell lines; also recorded: showed NOTCH1 inhibition”. Besides, the “NOTCH1 signaling (DELTEX1 expression)” value in the test on DELTEX1 is “effectively blocks NOTCH1 signaling and downregulates the expression of genes directly regulated by NOTCH1”. For the same compound, in the test with CUTLL1 cells [1], the cell growth entry is “decreased cell growth” and the “cell size (FSC-H)” value is on record as “Decreased cell size”. For the same compound, in the test on DND41 cells, the cell growth entry was “reduced cell growth” and the cell size result is on record as “cell size defects”. Further, the “PTEN expression (transcript levels)” value in the test on PTEN was “significant upregulation of PTEN expression”. Also, in the test on p-AKT (Ser473), the “AKT Ser473 phosphorylation” value was “decreased Ser473 phosphorylation on AKT”. Further, in the test on HPB-ALL cells, the glucose oxidation entry was “significant reductions” and the glucose uptake result is “significant reductions”. Also, in the test on P12ICHIKAWA cells, the glucose oxidation result is “not affected” and the glucose uptake result is given as “not affected”. For the same compound, in the test with CUTLL1 cells [2] (500 nM CompE for 6 days), the “autophagy (transmission electron microscopy, double membrane structures)” value is listed as “induces autophagy”. The “phagosome-associated LC3 protein (Western blot)” value with CUTLL1 cells [2] (CompE for 48 hours) is “induced the LC3-II isoform”.
With `C[C@H](NC(=O)Cc1cc(F)cc(F)c1)C(=O)N[C@H](C(=O)OC(C)(C)C)c1ccccc1` [DAPT, N-[N-(3,5-difluorophenacetyl)-L-alanyl]-Sphenylglycine-t-butylester], in test [3] (ey-Gal4>DI flies, DAPT in food), the “eye growth induced by Delta overexpression” value is on record as “suppression of eye overgrowth; also recorded: prevented eye growth induced by Delta overexpression” and the wing phenotype entry was “wing defects equivalent to a genetic reduction of NOTCH activity”. Moreover, in [3] (setting [4]), the Delta-induced eye overgrowth result is recorded as “inhibits Delta-induced overgrowth”; the “eye and wing size” value was “eyes and wings smaller than wild type”.
